Measurements published in patent US4732970A, “Antitumor amino acid and peptide derivatives of 1,4-bis(aminoalkyl and hydroxy-aminoalkyl)amino)-5,8-dihydroxyanthraquinones” (priority 1986, dated 1988).

Tested on: lymphocytic leukemia P388
Assay: Lymphocytic Leukemia P388 Test
Type: in vivo, BDF1 mice
Conditions: for Median Survival: BDF1 mice; for T/C × 100 (%): ratio of survival time treated/control
Protocol: The animals used were BDF1 mice, all of one sex, weighing a minimum of 18 g and all within a 3 g weight range. There were 5 or 6 mice per test group. The tumor transplant was by intraperitoneal injection of 0.5 ml of dilute ascitic fluid containing 10^6 cells of lymphocytic leukemia P388. The test compounds were administered intraperitoneally on days 1, 5 and 9 (relative to tumor inocu-lation) at various doses. The animals were weighed and survivors recorded on a regular basis for 60 days. The median survival time and the ratio of survival time for treated (T)/control (C) animals were calculated.

[1] = dose 0.75 mg/kg intraperitoneally on days 1, 5 and 9
[2] = dose 1.5 mg/kg intraperitoneally on days 1, 5 and 9
[3] = dose 3 mg/kg intraperitoneally on days 1, 5 and 9

Row | Compound | Median Survival [1] [days] | T/C × 100 (%) [1] [%] | Median Survival [2] [days] | T/C × 100 (%) [2] [%] | Median Survival [3] [days] | T/C × 100 (%) [3] [%]
1 | CC(C)(C)OC(=O)N[C@@H](CO)C(=O)NCCNc1ccc(NCCNC(=O)[C@H](CO)NC(=O)OC(C)(C)C)c2c1C(=O)c1c(O)ccc(O)c1C2=O (relative stereo) [Example 14, [S-(R*,R*)]-N,N'-[(9,10-Dihydro-5,8-dihydroxy-9,10-dioxo-1,4-anthracenediyl)bis[imino-2,1-ethanediylimino-[1-(hydroxymethyl)-2-oxo-2,1-ethanediyl]]]bis-carbamic acid, bis(1,1-dimethylethyl)ester] | 13.5 | 123 | 16.0 | 145 | 17.5 | 159
2 | Cl.Cl.N[C@@H](Cc1ccccc1)C(=O)NCCNc1ccc(NCCNC(=O)[C@@H](N)Cc2ccccc2)c2c1C(=O)c1c(O)ccc(O)c1C2=O (relative stereo) [Example 17, [S-(R*,R*)]-N,N'-[(9,10-Dihydro-5,8-dihydroxy-9,10-dioxo-1,4-anthracenediyl)bis(imino-2,1-ethanediyl)]bis[2-aminobenzenepropanamide], dihydrochloride] | 22.5 | 188 | 23.0 | 192 | 19.5 | 163
3 | CC[C@H](C)[C@H](N)C(=O)NCCNc1ccc(NCCNC(=O)[C@@H](N)[C@@H](C)CC)c2c1C(=O)c1c(O)ccc(O)c1C2=O.Cl.Cl (relative stereo) [Example 21, [S-(R*,R*,R*,R*)]-N,N'-[(9,10-Dihydro-5,8-dihydroxy-9,10-dioxo-1,4-anthracenediyl)bis(imino-2,1-ethanediyl)]bis-[2-amino-3-methylpentanamide], dihydrochloride] | 18.5 | 185 | 18.0 | 180 | 22.5 | 225
4 | CSCC[C@H](N)C(=O)NCCNc1ccc(NCCNC(=O)[C@@H](N)CCSC)c2c1C(=O)c1c(O)ccc(O)c1C2=O.Cl.Cl (relative stereo) [Example 22, [S-(R*,R*)]N,N'(9,10-Dihydro-5,8-dihydroxy-9,10-dioxo-1,4-anthracenediyl)bis(imino-2,1-ethanediyl)]-bis[2-amino-4-(methylthio)butanamide], dihydrochloride] | 17.0 | 170 | 20.5 | 205 | 25.5 | 255
5 | CC(C)[C@H](N)C(=O)NCCNc1ccc(NCCNC(=O)[C@@H](N)C(C)C)c2c1C(=O)c1c(O)ccc(O)c1C2=O.Cl.Cl (relative stereo) [Example 24, [S-(R*,R*)]-N,N'-[(9,10-Dihydro-5,8-dihydroxy-9,10-dioxo-1,4-anthracenediyl)bis(imino-2,1-ethanediyl)]bis-[2-Amino-3-methylbutanamide], dihydrochloride] | 18.5 | 185 | 20.0 | 200 | 20.0 | 200
6 | CC(C)C[C@@H](N)C(=O)N(CCO)CCNc1ccc(NCCN(CCO)C(=O)[C@H](N)CC(C)C)c2c1C(=O)c1c(O)ccc(O)c1C2=O.O=C(O)C(F)(F)F.O=C(O)C(F)(F)F.O=C(O)C(F)(F)F (relative stereo) [Example 29, [R-(R*,R*)]-N,N'-[(9,10-Dihydro-5,8-dihydroxy-9,10-dioxo-1,4-anthracenediyl)bis(imino-2,1-ethanediyl)]bis-[2-amino-N-(2-hydroxyethyl)-4-methylpentanamide]tris(trifluoroacetate)] | 12.0 | 109 | 13.0 | 118 | 15.5 | 141
7 | Br.Br.N[C@@H](CS)C(=O)NCCNc1ccc(NCCNC(=O)[C@@H](N)CS)c2c1C(=O)c1c(O)ccc(O)c1C2=O (relative stereo) [Example 35, R-(R*,R*)]-N,N'-[(9,10-Dihydro-5,8-dihydroxy-9,10-dioxo-1,4-anthracenediyl)bis(imino-2,1-ethanediyl)]bis[2-amino-3-mercaptopropanamide], dihydrobromide] | 21.0 | 210 | 23.0 | 230 | 24.5 | 245
8 | N[C@@H](CO)C(=O)NCCNc1ccc(NCCNC(=O)[C@@H](N)CO)c2c1C(=O)c1c(O)ccc(O)c1C2=O.O=C(O)C(F)(F)F.O=C(O)C(F)(F)F (relative stereo) [Example 36, [S-(R*,R*)]-N,N'-(9,10-Dihydro-5,8-dihydroxy-9,10-dioxo-1,4-anthracenediyl)bis(imino-2,1-ethanediyl)]bis[2-amino-3-hydroxyropanamide]bis(trifluoroacetate)] | 19.0 | 173 | 19.0 | 173 | 23.5 | 214
9 | Cl.Cl.N[C@@H](Cc1ccc(O)cc1)C(=O)NCCNc1ccc(NCCNC(=O)[C@@H](N)Cc2ccc(O)cc2)c2c1C(=O)c1c(O)ccc(O)c1C2=O (relative stereo) [Example 37, [S-(R*,R*)]-N,N'-[(9,10-Dihydro-5,8-dihydroxy-9,10-dioxo-1,4anthracenediyl)bis(imino-2,1-ethanediyl)]bis-[2,-amino-3-(4-hydroxyphenyl)-propanamide, dihydrochloride] | 25.0 | 227 | 23.5 | 214 | 23.5 | 214
10 | CC(C)(C)OC(=O)C[C@H](NC(=O)OCC1c2ccccc2-c2ccccc21)C(=O)NCCNc1ccc(NCCNC(=O)[C@H](CC(=O)OC(C)(C)C)NC(=O)OCC2c3ccccc3-c3ccccc32)c2c1C(=O)c1c(O)ccc(O)c1C2=O (relative stereo) [Example 38, [S-R*,R*)]-4,4'-[(9,10-Dihydro-5,8-dihydroxy-D9,10-dioxo-1,4-anthracenediyl)bis(imino-2,1-ethanediylimino)]bis[3-[[9H-fluoren-9-ylmethoxycarbonyl]amino]-4-oxobut anoic acid],bis(1,1-dimethyl)ester] | 13.0 | 108 | 15.0 | 125 | 16.0 | 133
11 | CC(C)(C)OC(=O)C[C@H](N)C(=O)NCCNc1ccc(NCCNC(=O)[C@@H](N)CC(=O)OC(C)(C)C)c2c1C(=O)c1c(O)ccc(O)c1C2=O (relative stereo) [Example 39, [S-(R*,R*)]-4,4'-[(9,10-Dihydro-5,8-dihydroxy-9,10-dioxo-1,4-anthracenediyl)bis(imino-2,1-ethanediylimino)]bis[3-amino-4-oxobutanoic acid]bis(1,1-dimethylethyl)ester] | 21.5 | 179 | 19.5 | 163 | 19.0 | 158
